Assay results as given in patent publication US9375004B2 (Bayer Intellectual Property GmbH, priority 2010, dated 2016).

How the values were obtained:
Alternaria solani = test: Alternaria test (tomato)/preventive; format: in vivo; conditions: 500 ppm, preventive, evaluated 7 days after inoculation
Sphaerotheca fuliginea = test: Sphaerotheca test (cucumber)/preventive; format: in vivo; conditions: 500 ppm, preventive, evaluated 7 days after inoculation
Puccinia triticina = test: Puccinia triticina-test (wheat)/preventive; format: in vivo; conditions: 500 ppm, preventive, evaluated 8 days after inoculation
Pyrenophora teres = test: Pyrenophora teres-test (barley)/preventive; format: in vivo; conditions: 500 ppm, preventive, evaluated 8 days after inoculation
[1] = test system: Fusarium nivale (var. majus); test: Fusarium nivale (var. majus)-test (wheat)/preventive; conditions: for Efficacy: preventive, evaluated 5 days after inoculation; for protection: dose of 250 ppm and 500 ppm of active ingredient
[2] = logP by HPLC on reversed-phase column (EEC Directive 79/831 Annex V.A8); conditions: EEC Directive 79/831 Annex V.A8
Uromyces appendiculatus = conditions: 100 ppm, beans, preventive, evaluated 10 days after inoculation
Venturia inaequalis = test: Venturia test (apples)/preventive; conditions: 100 ppm, preventive, evaluated 10 days after inoculation
[3] = HPLC on reversed-phase column (C 18)
[4] = HPLC on a reversed-phase column (C 18)

Row | logP [2, 3] | SMILES | Efficacy (Alternaria solani) [%] | Efficacy (Puccinia triticina) [%] | Efficacy ([1]; 500 ppm) [%] | also measured
1 | 3.92 | Cn1nc(C(F)F)c(C(=S)Nc2ccccc2-c2ccc(Cl)c(F)c2)c1Cl [Example 101] | 80 | 100 | 100 | Efficacy (Sphaerotheca fuliginea): 95%; Efficacy (Pyrenophora teres): 100%
2 | 3.25 | Cn1nc(C(F)F)c(C(=O)Nc2ccccc2-c2cc(F)c(F)cc2F)c1F [Example 107] | 100 |  |  | Efficacy (Sphaerotheca fuliginea): 88%
3 | 3.19 | Cn1nc(C(F)F)c(C(=O)Nc2cccc3c2CCC3)c1Cl [Example 55] |  | 100 | 83 | Efficacy (Pyrenophora teres): 71%
4 |  | CC(C)C1C2CCC1c1c(NC(=O)c3cn(C)nc3C(F)F)cccc12 (stereo not drawn) [Example 15.202, 3-(difluoromethyl)-N-(9-isopropyl-1,2,3,4-tetrahydro-1,4-methanonaphthalen-5-yl)-1-methyl-1H-pyrazole-4-carboxamide, reference compound] |  |  |  | protection [1]: average (less than 50%) protection to good (at least 70%) protection
5 |  | Cn1cc(C(=O)Nc2cccc3c2C2CCC3C2=C(Cl)Cl)c(C(F)F)n1 (stereo not drawn) [A1.1 from WO-2008/131901, N-[9-(dichloromethylene)-1,2,3,4-tetrahydro-1,4-methanonaphthalen-5-yl]-3-(difluoromethyl)-1-methyl-1H-pyrazole-4-carboxamide, reference compound] |  |  | 88 | Efficacy ([1]; 250 ppm): 75%; protection [1]: at least 70%
6 | 2.88 | CC(C)Oc1cccc(NC(=O)c2c(C(F)F)nn(C)c2F)c1 [Example 170] |  | 100 | 86 | 
7 |  | Cn1cc(C(=O)Nc2ccccc2C2CC2C2CC2)c(C(F)F)n1 (stereo not drawn) [2.34 from WO-2003/074491, N-{2-[1,1′-bi(cyclopropyl)-2-yl]phenyl}-3-(difluoromethyl)-1-methyl-1H-pyrazole-4-carboxamide, reference compound] |  |  | 57 | Efficacy ([1]; 500 ppm, listed as 2.34): less than 60%
8 | 3.15 | C=C(C)COc1cccc(NC(=O)c2c(C(F)F)nn(C)c2F)c1 [Example 176] |  | 100 | 100 | Efficacy (Pyrenophora teres): 100%
9 | 3.17 | Cn1nc(C(F)F)c(C(=O)Nc2ccc3c(c2)CCC3)c1Cl [Example 193] |  | 100 | 75 | 
10 | 2.98 | CC(C)Oc1cccc(NC(=O)c2c(C(F)F)nn(C)c2Cl)c1 [Example 169] |  | 100 | 71 | Efficacy (Pyrenophora teres): 100%; Efficacy (Uromyces appendiculatus): 100%; Efficacy (Venturia inaequalis): 96%
11 | 3.34 | COC(C)(C)C#Cc1ccccc1NC(=O)c1c(C(F)F)nn(C)c1F [Example 19] | 80 |  |  | 
12 |  | Cn1nc(C(F)F)c(C(=O)Nc2cccc(Oc3cccc(C(F)(F)F)c3)c2)c1Cl [Example 255] |  | 94 | 100 | Efficacy (Uromyces appendiculatus): 73%; logP [2, 4]: 3.89
13 | 3.16 | Cn1nc(C(F)F)c(C(=O)Nc2ccc(F)cc2-c2ccc(F)cc2)c1F [Example 77] | 95 |  |  | Efficacy (Sphaerotheca fuliginea): 95%
14 | 3.09 | Cn1nc(C(F)F)c(C(=O)Nc2cccc(OC(F)(F)C(F)F)c2)c1Cl [Example 188] |  | 100 |  | Efficacy (Pyrenophora teres): 92%; Efficacy (Uromyces appendiculatus): 100%
15 | 3.20 | Cn1nc(C(F)F)c(C(=O)Nc2ccccc2-c2ccc(F)cc2)c1F [Example 80] | 95 |  |  | Efficacy (Sphaerotheca fuliginea): 98%
16 | 4.27 | Cn1nc(C(F)F)c(C(=O)Nc2ccccc2-c2ccc(-c3ccccc3)cc2)c1F [Example 137] | 95 | 100 |  | Efficacy (Sphaerotheca fuliginea): 100%; Efficacy (Pyrenophora teres): 93%; Efficacy (Uromyces appendiculatus): 99%; Efficacy (Venturia inaequalis): 100%
17 | 3.40 | Cn1nc(C(F)F)c(C(=O)Nc2ccccc2-c2ccc(F)cc2)c1Cl [Example 78] | 90 |  |  | Efficacy (Sphaerotheca fuliginea): 75%
18 | 3.41 | Cn1nc(C(F)F)c(C(=O)Nc2ccc(F)cc2-c2ccc(F)cc2)c1Cl [Example 79] | 90 |  |  | Efficacy (Sphaerotheca fuliginea): 95%
19 | 3.25 | CCCOc1cccc(NC(=O)c2c(C(F)F)nn(C)c2Cl)c1 [Example 174] | 70 |  |  | 
20 | 3.87 | Cn1nc(C(F)F)c(C(=O)Nc2ccccc2-c2cccc(Cl)c2)c1Cl [Example 87] | 95 |  |  | Efficacy (Sphaerotheca fuliginea): 95%

Row | logP [2, 3] | SMILES | Efficacy (Alternaria solani) [%] | Efficacy (Puccinia triticina) [%] | Efficacy ([1]; 500 ppm) [%] | also measured
21 |  | CC(C)C1C2CCC1c1c(NC(=O)c3cn(C)nc3C(F)F)cccc12 (stereo not drawn) [15.202 (syn/anti 3/7) from WO-2004/035589] [3-(difluoromethyl)-N-(9-isopropyl-1,2,3,4-tetrahydro-1,4-methanonaphthalen-5-yl)-1-methyl-1H-pyrazole-4-carboxamide, reference compound] |  |  | 83 | Efficacy ([1]; 250 ppm): 50%
22 | 4.14 | Cn1nc(C(F)F)c(C(=O)Nc2ccccc2-c2ccc(Cl)c(Cl)c2)c1Cl [Example 126] | 89 | 100 | 100 | Efficacy (Sphaerotheca fuliginea): 100%; Efficacy (Pyrenophora teres): 100%; Efficacy (Uromyces appendiculatus): 96%; Efficacy (Venturia inaequalis): 75%
23 |  | CC(C)C1C2CCC1c1c(NC(=O)c3cn(C)nc3C(F)F)cccc12 (stereo not drawn) [15.202 (syn/anti 9/1) from WO-2004/035589] [3-(difluoromethyl)-N-(9-isopropyl-1,2,3,4-tetrahydro-1,4-methanonaphthalen-5-yl)-1-methyl-1H-pyrazole-4-carboxamide, reference compound] |  |  | 50 | Efficacy ([1]; 250 ppm): 50%
24 |  | Cc1nn(C)c(F)c1C(=O)Nc1ccccc1C(C)CC(C)C (stereo not drawn) [I-21 from WO-2003/010149, 5-fluoro-1,3-dimethyl-N-[2-(4-methylpentan-2-yl)phenyl]-1H-pyrazole-4-carboxamide, reference compound] |  |  | 40 | Efficacy ([1]; 250 ppm): 20%; protection [1]: less than 40%
25 | 3.96 | Cn1nc(C(F)F)c(C(=S)Nc2ccccc2-c2ccc(Br)cc2)c1Cl [Example 141] | 70 |  |  | Efficacy (Sphaerotheca fuliginea): 95%
26 | 2.94 | Cn1nc(C(F)F)c(C(=O)Nc2cccc3c2CCC3)c1F [Example 54] | 70 |  |  | 
27 | 2.98 | Cn1nc(C(F)F)c(C(=O)Nc2ccccc2C(C)(C)C)c1F [Example 3] | 94 |  |  | Efficacy (Sphaerotheca fuliginea): 98%
28 | 4.61 | Cn1nc(C(F)F)c(C(=O)Nc2ccccc2-c2ccc(-c3ccccc3)cc2)c1Cl [Example 138] |  | 100 |  | Efficacy (Sphaerotheca fuliginea): 100%; Efficacy (Pyrenophora teres): 86%
29 | 4.56 | Cc1cc(C)c(-c2cccc(NC(=O)c3c(C(F)F)nn(C)c3Cl)c2)c(C)c1 [Example 212] |  | 86 | 75 | 
30 |  | Cc1cc(Cl)ccc1Oc1cccc(NC(=O)c2c(C(F)F)nn(C)c2F)c1 [Example 254] | 70 |  |  | logP [2, 4]: 4.19
31 | 3.25 | Cn1nc(C(F)F)c(C(=O)Nc2ccccc2-c2ccccc2)c1F [Example 73] | 90 |  |  | Efficacy (Sphaerotheca fuliginea): 75%
32 | 3.74 | Cc1ccccc1-c1ccccc1NC(=O)c1c(C(F)F)nn(C)c1F [Example 75] | 94 | 70 |  | Efficacy (Pyrenophora teres): 100%
33 | 3.59 | Cn1nc(C(F)F)c(C(=O)Nc2ccccc2-c2ccccc2)c1Cl [Example 74] | 78 |  |  | 
34 | 4.36 | CC(C)Oc1ccc(-c2ccccc2NC(=O)c2c(C(F)F)nn(C)c2Cl)cc1 [compound 114] |  |  |  | 
35 | 5.14 | Cn1nc(C(F)F)c(C(=O)Nc2ccccc2-c2ccc(C(C)(C)C)cc2)c1Cl [compound 110] |  |  |  | 
36 | 4.24 | Cn1nc(C(F)F)c(C(=O)Nc2ccccc2-c2ccc(Cl)cc2Cl)c1Cl [compound 124] |  |  |  | 
37 | 4.51 | Cn1nc(C(F)F)c(C(=O)Nc2cc(Cl)ccc2CCC(C)(C)C)c1F [compound 18] |  |  |  | 
38 | 3.25 | Cn1nc(C(F)F)c(C(=O)Nc2cccc(OC(F)(F)F)c2)c1Cl [Example 181] |  |  |  | Efficacy (Uromyces appendiculatus): 100%
39 | 4.41 | CC(C)c1cccc(-c2cccc(NC(=O)c3c(C(F)F)nn(C)c3F)c2)c1 [compound 214] |  |  |  | 
40 | 2.70 | CCOc1ccc(NC(=O)c2c(C(F)F)nn(C)c2Cl)cc1OCC [compound 168] |  |  |  | 

Row | SMILES | logP [2, 3] | Efficacy (Alternaria solani) [%] | Efficacy (Puccinia triticina) [%] | Efficacy ([1]; 500 ppm) [%] | also measured
41 | CCC(CC(C)C)c1ccccc1NC(=O)c1c(C(F)F)nn(C)c1F (stereo not drawn) [Example 20] | 4.28 | 90 |  |  | 
42 | Cn1nc(C(F)F)c(C(=S)Nc2ccccc2CC[Si](C)(C)C)c1Cl [Example 25] | 4.56 |  | 100 | 88 | 
43 | Cn1nc(C(F)F)c(C(=O)Nc2ccccc2OC(F)(F)C(F)C(F)(F)F)c1F (stereo not drawn) [Example 32] | 3.48 | 95 |  |  | 
44 | CC1CC(C)(C)c2cccc(NC(=O)c3c(C(F)F)nn(C)c3Cl)c21 (stereo not drawn) [Example 65] | 4.04 | 80 | 100 | 86 | Efficacy (Pyrenophora teres): 100%; Efficacy (Uromyces appendiculatus): 100%; Efficacy (Venturia inaequalis): 98%
